This note sets out measurements from ChEMBL document CHEMBL1909046, “DrugMatrix in vitro pharmacology data”.

Test [1] has as its target Protein phosphatase 3 catalytic subunit alpha (Homo sapiens, UniProt Q08209). Set-up: species or system Escherichia coli.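 Also: inhibition of calcineurin (PP2B) enzyme activity, measured with DiFMUP as the substrate; in other assays of this panel Not Active means under 50% inhibition at 10 µM.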
For test [2], the target named is T1, Alpha-2C adrenergic receptor (Homo sapiens, UniProt P18825).
T1 sequence (P18825 whole entry): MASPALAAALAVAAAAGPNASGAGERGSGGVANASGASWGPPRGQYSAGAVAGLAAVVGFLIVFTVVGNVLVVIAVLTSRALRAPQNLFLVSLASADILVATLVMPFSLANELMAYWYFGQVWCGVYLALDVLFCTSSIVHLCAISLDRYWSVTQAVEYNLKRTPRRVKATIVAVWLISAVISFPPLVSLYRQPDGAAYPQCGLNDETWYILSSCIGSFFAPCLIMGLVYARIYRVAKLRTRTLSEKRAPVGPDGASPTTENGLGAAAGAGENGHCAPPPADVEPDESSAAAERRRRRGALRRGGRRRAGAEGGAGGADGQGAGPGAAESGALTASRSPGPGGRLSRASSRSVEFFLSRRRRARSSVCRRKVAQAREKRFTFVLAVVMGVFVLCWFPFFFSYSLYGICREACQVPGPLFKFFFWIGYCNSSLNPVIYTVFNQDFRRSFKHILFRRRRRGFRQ
In words: DRUGMATRIX: Adrenergic Alpha-2C radioligand binding (ligand: [3H] MK-912). In kind it is cell membranes, Sf9, Membrane. Conditions: sf9.

Test [3] has as its target T2, C-X-C chemokine receptor type 1 (Homo sapiens, UniProt P25024). Also: in other assays of this panel Not Active means under 50% inhibition at 10 µM.
T2 sequence (P25024 whole entry): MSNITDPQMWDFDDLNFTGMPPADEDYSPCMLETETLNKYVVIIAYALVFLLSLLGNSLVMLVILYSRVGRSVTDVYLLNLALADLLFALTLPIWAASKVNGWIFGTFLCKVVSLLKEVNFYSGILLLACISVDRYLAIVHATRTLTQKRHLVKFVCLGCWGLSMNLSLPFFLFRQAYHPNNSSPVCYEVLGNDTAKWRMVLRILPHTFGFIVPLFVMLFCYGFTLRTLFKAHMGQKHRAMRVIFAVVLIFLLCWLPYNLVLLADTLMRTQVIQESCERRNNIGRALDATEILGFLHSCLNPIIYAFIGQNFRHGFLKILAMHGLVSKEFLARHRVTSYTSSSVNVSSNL

In a further test the target is Cannabinoid receptor 1 (Homo sapiens, UniProt P21554). In kind it is cell membranes, Membrane. Conditions: chem-1. Also: in other assays of this panel Not Active means under 50% inhibition at 10 µM.
Test [4] addresses cGMP-specific 3',5'-cyclic phosphodiesterase (Homo sapiens, UniProt O76074). Briefly: DRUGMATRIX: Phosphodiesterase PDE5 enzyme inhibition (substrate: [3H]cGMP + cGMP). In kind it is tissue-based, Platelet. Conditions: platelet; Not Active = under 50% inhibition at 10 µM.
Test [5] can be described thus: DRUGMATRIX: Platelet-Derived Growth Factor (PDGF) radioligand binding (ligand: [125I] PDGF). The class given is cell-based. Conditions: nih3t3; Not Active = under 50% inhibition at 10 µM.
A further test addresses T3, Substance-K receptor (Homo sapiens, UniProt P21452).
T3 sequence (P21452 whole entry): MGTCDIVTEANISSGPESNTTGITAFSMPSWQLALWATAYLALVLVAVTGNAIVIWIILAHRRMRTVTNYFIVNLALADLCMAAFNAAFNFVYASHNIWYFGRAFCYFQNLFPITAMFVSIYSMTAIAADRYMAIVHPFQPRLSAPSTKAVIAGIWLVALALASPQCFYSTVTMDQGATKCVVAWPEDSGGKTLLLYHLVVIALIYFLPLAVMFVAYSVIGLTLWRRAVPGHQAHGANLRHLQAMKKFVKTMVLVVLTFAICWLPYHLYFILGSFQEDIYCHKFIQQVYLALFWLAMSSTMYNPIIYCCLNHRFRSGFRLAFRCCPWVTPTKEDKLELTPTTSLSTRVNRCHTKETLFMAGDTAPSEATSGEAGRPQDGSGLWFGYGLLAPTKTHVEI
The class given is cell membranes, CHO, Membrane. The conditions noted are these: cho.

Another test has as its target Adenosine receptor A2a (Homo sapiens, UniProt P29274). In words: DRUGMATRIX: Adenosine A2A radioligand binding (ligand: […]). In kind it is cell membranes, HEK293, Membrane. Conditions: hek293; Not Active = under 50% inhibition at 10 µM.
Test [6] is described as follows: DRUGMATRIX: Potassium Channel [KATP] radioligand binding (ligand: [3H] Glyburide). Conditions: hit-t15; Not Active = under 50% inhibition at 10 µM. The class given is cell membranes, Membrane.
The nature of test [7]: DRUGMATRIX: GABAA, Chloride Channel, TBOB radioligand binding (ligand: [3H] TBOB). In kind it is cell membranes, Rattus norvegicus, Wistar, Cerebral cortex, Membrane. Conditions: Not Active = under 50% inhibition at 10 µM.
A further test has as its target Nitric oxide synthase 1 (Rattus norvegicus, UniProt P29476). The class given is tissue-based, Cerebellum. Also: in other assays of this panel Not Active means under 50% inhibition at 10 µM.
In a further test the target is T4, B2 bradykinin receptor (Homo sapiens, UniProt P30411). Also: in other assays of this panel Not Active means under 50% inhibition at 10 µM.
T4 sequence (P30411 whole entry): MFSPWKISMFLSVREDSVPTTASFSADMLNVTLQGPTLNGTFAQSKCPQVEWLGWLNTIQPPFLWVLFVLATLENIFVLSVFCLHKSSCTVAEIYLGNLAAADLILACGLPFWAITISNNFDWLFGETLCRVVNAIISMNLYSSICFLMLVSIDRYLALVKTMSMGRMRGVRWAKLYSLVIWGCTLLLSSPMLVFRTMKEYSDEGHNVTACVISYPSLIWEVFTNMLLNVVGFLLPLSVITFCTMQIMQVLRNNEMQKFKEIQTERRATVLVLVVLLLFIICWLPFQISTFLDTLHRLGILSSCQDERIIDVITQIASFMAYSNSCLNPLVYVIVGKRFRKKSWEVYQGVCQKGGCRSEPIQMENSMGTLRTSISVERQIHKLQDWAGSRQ
The class given is cell membranes, Membrane. The conditions noted are these: chem-1.

Test [8] addresses Mitogen-activated protein kinase 3 (Homo sapiens, UniProt P27361). In words: DRUGMATRIX: Protein Serine/Threonine Kinase, ERK1 enzyme inhibition (substrate: Myelin Basic Protein). Set-up: species or system Escherichia coli. Conditions: Not Active = under 50% inhibition at 10 µM.
A further test deals with Acetylcholinesterase (Homo sapiens, UniProt P22303). Briefly: DRUGMATRIX: Acetylcholinesterase enzyme inhibition (substrate: acetylthiocholine). In kind it is cell-based, HEK293. Conditions: hek293; Not Active = under 50% inhibition at 10 µM.

pIC50, pKi: −log10 of the molar value.

Cannabinoid receptor 1, sequence (P21554 whole entry): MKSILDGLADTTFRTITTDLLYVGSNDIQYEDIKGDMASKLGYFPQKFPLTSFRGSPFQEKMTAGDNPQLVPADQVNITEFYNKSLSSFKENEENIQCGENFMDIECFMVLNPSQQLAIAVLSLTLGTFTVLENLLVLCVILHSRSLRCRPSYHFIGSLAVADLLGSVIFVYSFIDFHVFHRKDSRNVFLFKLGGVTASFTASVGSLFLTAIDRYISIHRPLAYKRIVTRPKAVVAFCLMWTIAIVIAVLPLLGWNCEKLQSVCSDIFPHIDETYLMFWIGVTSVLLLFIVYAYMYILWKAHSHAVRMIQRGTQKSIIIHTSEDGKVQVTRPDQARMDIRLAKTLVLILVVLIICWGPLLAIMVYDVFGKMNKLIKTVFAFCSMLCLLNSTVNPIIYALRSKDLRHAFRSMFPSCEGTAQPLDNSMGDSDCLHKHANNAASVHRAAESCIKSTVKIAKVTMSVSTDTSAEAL
Acetylcholinesterase, sequence (P22303 whole entry): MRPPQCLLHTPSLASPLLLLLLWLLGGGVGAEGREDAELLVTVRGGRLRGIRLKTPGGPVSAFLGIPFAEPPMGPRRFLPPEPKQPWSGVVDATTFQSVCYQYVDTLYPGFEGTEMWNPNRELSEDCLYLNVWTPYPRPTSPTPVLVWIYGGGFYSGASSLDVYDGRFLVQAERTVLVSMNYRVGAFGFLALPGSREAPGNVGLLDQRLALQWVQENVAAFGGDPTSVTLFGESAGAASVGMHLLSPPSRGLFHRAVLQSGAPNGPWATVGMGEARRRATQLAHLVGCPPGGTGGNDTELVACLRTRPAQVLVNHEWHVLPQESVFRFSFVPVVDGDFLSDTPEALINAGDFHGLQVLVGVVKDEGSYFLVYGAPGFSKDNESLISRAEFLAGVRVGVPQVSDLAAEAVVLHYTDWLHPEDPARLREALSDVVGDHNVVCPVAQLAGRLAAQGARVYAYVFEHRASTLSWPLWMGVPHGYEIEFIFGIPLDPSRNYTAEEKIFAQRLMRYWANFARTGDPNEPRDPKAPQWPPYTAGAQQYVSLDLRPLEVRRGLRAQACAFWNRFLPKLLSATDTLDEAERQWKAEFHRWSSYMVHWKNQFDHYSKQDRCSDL
Mitogen-activated protein kinase 3, sequence (P27361 whole entry): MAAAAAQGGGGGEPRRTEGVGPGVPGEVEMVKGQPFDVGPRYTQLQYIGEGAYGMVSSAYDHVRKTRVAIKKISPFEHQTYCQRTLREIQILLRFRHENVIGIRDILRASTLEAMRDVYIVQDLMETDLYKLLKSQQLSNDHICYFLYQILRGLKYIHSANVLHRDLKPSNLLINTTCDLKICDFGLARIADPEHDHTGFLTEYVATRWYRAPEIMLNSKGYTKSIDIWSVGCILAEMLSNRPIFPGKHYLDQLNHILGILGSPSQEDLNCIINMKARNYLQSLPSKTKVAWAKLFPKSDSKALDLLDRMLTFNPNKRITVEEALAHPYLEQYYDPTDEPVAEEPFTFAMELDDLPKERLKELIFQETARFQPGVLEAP
Adenosine receptor A2a, sequence (P29274 whole entry): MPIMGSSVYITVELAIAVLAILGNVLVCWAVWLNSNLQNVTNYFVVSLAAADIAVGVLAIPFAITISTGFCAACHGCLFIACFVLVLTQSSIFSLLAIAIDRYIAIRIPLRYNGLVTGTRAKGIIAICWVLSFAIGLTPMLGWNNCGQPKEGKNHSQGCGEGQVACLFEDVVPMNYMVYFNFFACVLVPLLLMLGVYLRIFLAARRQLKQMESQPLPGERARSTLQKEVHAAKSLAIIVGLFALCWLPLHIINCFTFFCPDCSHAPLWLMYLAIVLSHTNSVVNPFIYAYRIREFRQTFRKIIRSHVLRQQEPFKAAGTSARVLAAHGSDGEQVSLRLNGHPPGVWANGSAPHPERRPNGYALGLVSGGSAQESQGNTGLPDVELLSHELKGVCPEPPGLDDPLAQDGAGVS
Nitric oxide synthase 1, sequence (P29476 whole entry): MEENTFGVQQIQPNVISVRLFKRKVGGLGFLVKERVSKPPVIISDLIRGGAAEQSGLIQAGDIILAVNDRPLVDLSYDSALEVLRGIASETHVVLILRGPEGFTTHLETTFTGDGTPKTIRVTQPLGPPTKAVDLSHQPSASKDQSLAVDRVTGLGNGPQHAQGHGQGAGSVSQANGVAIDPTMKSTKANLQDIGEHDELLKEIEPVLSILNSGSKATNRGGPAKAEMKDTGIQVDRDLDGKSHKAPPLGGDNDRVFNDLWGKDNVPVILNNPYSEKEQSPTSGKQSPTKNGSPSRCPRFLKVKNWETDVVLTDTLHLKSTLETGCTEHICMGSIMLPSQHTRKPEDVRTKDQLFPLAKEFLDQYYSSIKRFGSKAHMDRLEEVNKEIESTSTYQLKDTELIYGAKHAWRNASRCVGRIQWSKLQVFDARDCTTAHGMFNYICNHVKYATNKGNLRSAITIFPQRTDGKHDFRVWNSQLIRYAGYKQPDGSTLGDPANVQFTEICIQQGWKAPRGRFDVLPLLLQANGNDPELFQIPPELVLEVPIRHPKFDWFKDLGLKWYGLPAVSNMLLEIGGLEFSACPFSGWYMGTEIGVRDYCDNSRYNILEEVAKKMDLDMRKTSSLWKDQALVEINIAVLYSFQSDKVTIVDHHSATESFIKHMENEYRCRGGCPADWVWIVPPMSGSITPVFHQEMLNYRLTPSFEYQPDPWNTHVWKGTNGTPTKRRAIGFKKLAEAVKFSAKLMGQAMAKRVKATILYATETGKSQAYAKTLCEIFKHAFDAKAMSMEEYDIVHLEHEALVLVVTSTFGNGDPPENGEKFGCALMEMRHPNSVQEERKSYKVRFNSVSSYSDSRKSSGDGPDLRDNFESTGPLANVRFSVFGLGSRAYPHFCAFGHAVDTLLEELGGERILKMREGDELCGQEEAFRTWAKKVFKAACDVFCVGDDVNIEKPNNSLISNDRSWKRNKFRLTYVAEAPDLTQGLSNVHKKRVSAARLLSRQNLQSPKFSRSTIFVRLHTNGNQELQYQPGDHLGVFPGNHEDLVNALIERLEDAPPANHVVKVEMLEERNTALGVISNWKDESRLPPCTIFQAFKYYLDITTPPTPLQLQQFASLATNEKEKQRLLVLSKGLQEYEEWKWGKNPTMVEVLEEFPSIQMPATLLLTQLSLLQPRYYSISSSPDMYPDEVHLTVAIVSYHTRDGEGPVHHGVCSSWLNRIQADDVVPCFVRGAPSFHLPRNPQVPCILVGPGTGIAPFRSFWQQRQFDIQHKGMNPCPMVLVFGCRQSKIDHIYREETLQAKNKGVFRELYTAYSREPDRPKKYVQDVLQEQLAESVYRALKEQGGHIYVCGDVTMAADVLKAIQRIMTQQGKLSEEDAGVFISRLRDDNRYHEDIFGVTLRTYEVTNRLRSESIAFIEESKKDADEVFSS

With `CC(C)(C)NCC(O)c1cc(O)cc(O)c1` (configuration not stated) [TERBUTALINE], the IC50 entry (in test [1]; in test [2]; in [3]; at Cannabinoid receptor 1; in test [4]; in test [5]) was “Not Active” in each case. Moreover, the IC50 entry (at Substance-K receptor; at Adenosine receptor A2a; in test [6]; in test [7]; against Nitric oxide synthase 1; against B2 bradykinin receptor) was “Not Active” in each case. Further, the IC50 result (in [8]; at Acetylcholinesterase) was “Not Active” each time. In addition, the Ki entry in [5], in test [6] and in [7] was “Not Active” in each case.
With `C=CC[C@@H]1/C=C(\C)C[C@H](C)C[C@H](OC)[C@H]2O[C@@](O)(C(=O)C(=O)N3CCCC[C@H]3C(=O)O[C@H](/C(C)=C/[C@@H]3CC[C@@H](O)[C@H](OC)C3)[C@H](C)[C@@H](O)CC1=O)[C@H](C)C[C@@H]2OC` [TACROLIMUS ANHYDROUS], the IC50 result (in test [1]; in [2]; in test [3]; on Cannabinoid receptor 1; in test [4]; in test [5]) was “Not Active” throughout. Further, the IC50 entry (on Substance-K receptor; at Adenosine receptor A2a; in test [6]; in test [7]; on Nitric oxide synthase 1; against B2 bradykinin receptor) was “Not Active” in each case. For the same compound, the IC50 entry (in test [8]; against Acetylcholinesterase) was “Not Active” in each case. In addition, the Ki entry in test [5], in [6] and in test [7] was “Not Active” each time.
As to `CC(=O)[C@H]1CC[C@H]2[C@@H]3CCC4=CC(=O)CC[C@]4(C)[C@H]3CC[C@]12C` [PROGESTERONE], the IC50 entry (in test [1]; in [2]; in [3]; against Cannabinoid receptor 1; in [4]; in test [5]) was “Not Active” throughout. The IC50 entry (at Substance-K receptor; on Adenosine receptor A2a; in [6]; against Nitric oxide synthase 1; against B2 bradykinin receptor; in test [8]) was “Not Active” throughout. In addition, the IC50 entry against Acetylcholinesterase is “Not Active”. Also, the Ki result in [5] and in test [6] was “Not Active” each time. For the same compound, the pIC50 in test [7] (read-out: IC50) is 4.60. The pKi in test [7] (read-out: Ki) is 4.65.
`CN[C@H](CC(C)C)C(=O)N[C@H]1C(=O)N[C@@H](CC(N)=O)C(=O)N[C@H]2C(=O)N[C@H]3C(=O)N[C@H](C(=O)N[C@H](C(=O)O)c4cc(O)cc(O)c4-c4cc3ccc4O)[C@H](O)c3ccc(c(Cl)c3)Oc3cc2cc(c3O[C@@H]2O[C@H](CO)[C@@H](O)[C@H](O)[C@H]2O[C@H]2C[C@](C)(N)[C@H](O)[C@H](C)O2)Oc2ccc(cc2Cl)[C@H]1O` [VANCOMYCIN]: the IC50 result (in test [1]; in test [2]; in [3]; at Cannabinoid receptor 1; in test [4]; in test [5]) was “Not Active” throughout. Further, the IC50 entry (at Substance-K receptor; at Adenosine receptor A2a; in [6]; in test [7]; against Nitric oxide synthase 1; against B2 bradykinin receptor) was “Not Active” throughout. The IC50 result (in [8]; on Acetylcholinesterase) was “Not Active” throughout. In addition, the Ki entry in [5], in test [6] and in [7] was “Not Active” throughout.
For `CN(C)[C@@H]1C(O)=C(C(N)=O)C(=O)[C@@]2(O)C(O)=C3C(=O)c4c(O)cccc4[C@@](C)(O)[C@H]3C[C@@H]12` [TETRACYCLINE], the IC50 entry (in [1]; in [2]; in test [3]; on Cannabinoid receptor 1; in test [4]; in [5]) was “Not Active” in each case. Moreover, the IC50 entry (against Substance-K receptor; on Adenosine receptor A2a; in test [6]; in test [7]; on Nitric oxide synthase 1; against B2 bradykinin receptor) was “Not Active” each time. Besides, the IC50 result (in test [8]; against Acetylcholinesterase) was “Not Active” in each case. Moreover, the Ki result in test [5], in [6] and in [7] was “Not Active” each time.
In the case of `CO[C@@H]1[C@@H](O[C@@H]2O[C@H](C)[C@@H](O[C@H]3C[C@@](C)(O)[C@@H](OC(=O)CC(C)C)[C@H](C)O3)[C@H](N(C)C)[C@H]2O)[C@@H](CC=O)C[C@@H](C)[C@@H](O)/C=C/C=C/C[C@@H](C)OC(=O)C[C@H]1O` [KITASAMYCIN], the IC50 entry (in test [1]; in test [2]; in test [3]; against Cannabinoid receptor 1; in test [4]; in [5]) was “Not Active” in each case. Moreover, the IC50 result (on Substance-K receptor; on Adenosine receptor A2a; in [6]; in [7]; on Nitric oxide synthase 1; against B2 bradykinin receptor) was “Not Active” in each case. Moreover, the IC50 result (in [8]; against Acetylcholinesterase) was “Not Active” throughout. Moreover, the Ki result in test [5], in test [6] and in [7] was “Not Active” throughout.
